“And” between values parts separate entries of the source, which are not always exact repeats. Identical values can stand only once.
What was measured:
[1] = system: subjects with idiopathic PD with LIDs
Description: At the time the study was performed (2009), there was no FDA accepted instrument for measuring treatment efficacy for LIDs. Therefore, several secondary objectives were utilized to assess efficacy including the Unified Dyskinesia Rating Scale (UDysRS).
A total of 65 male and female subjects with idiopathic PD with LIDs were randomized in the study. The study consisted of 4 phases (FIG. 6A): screening phase (up to 3 weeks), double-blind treatment phase (10 weeks), taper phase (2 weeks), and follow-up phase (2 weeks). The approximate duration of the study for each subject was 17 weeks. […] During the double-blind treatment phase, dosing was begun at Visit 0 at 1 mg every 6 hours (total daily dose [TDD]=4 mg/day) and escalated upwards at 2-week intervals as follows: 2 mg every 6 hours (TDD=8 mg/day) at Visit 1 (Week 2); 4 mg every 6 hours (TDD=16 mg/day) at Visit 2 (Week 4); 6 mg every 6 hours (TDD=24 mg/day) at Visit 3 (Week 6). Subjects were maintained on 24 mg/day for 4 weeks. The subsequent taper phase (2 weeks total), beginning at Visit 4 (Week 10), consisted of 9 days of drug taper and 5 days off drug prior to Visit 5 (final safety visit). […] Ondansetron was provided by the sponsor and dispensed with each dose escalation step with instructions to use it for nausea and vomiting only during the first 4 days following dose initiation or escalation. […] No other dose down-titration was allowed.
Efficacy was measured with the Unified Dyskinesia Rating Scale (UDysRS), a semi-quantitative assessment, FDA-validated instrument to assess […] dyskinesia in PD. […] Dosing was begun at 1 mg every 6 hours to a final dose of 24 mg per day. Patients who tolerated a total daily dose of at least 16 mg per day continued in the study.
Subjects were maintained on 24 mg/day for 4 weeks. The subsequent taper phase (2 weeks total), beginning at visit 4 (Week 10), consisted of 9 days of drug taper and 5 days off drug prior to Visit 5 (final safety visit). […] No other down-titration was allowed.
LIDs were assessed by the UDysRS, the main measure of LIDs (Table 12). […] The study was conducted in accordance with the Declaration of Helsinki and Good Clinical Practice Guidelines. All sites received approval from an institutional review board and written informed consent was obtained from each patient prior to participation.

[2] = system: subjects with idiopathic PD with LIDs; remark: listed apart in the source
Source text: This post hoc analysis was inclusive of patients having baseline scores of […] for each of UPDRS Part II Question 13, Part II Question 14, and Part III Item 30.
The original UPDRS scale was used. […] In the UPDRS Part II, Question 13 is on Falling unrelated to Freezing. […] In Part II, Question 14 is on Freezing when Walking. This is a 5-point item and has two variables freezing and falls. […] Questions 13 and 14 were compared separately (Table 11).
For falls (UPDRS Part II, Question 13), a 5-point scale was used: 0: No falls to 4: falls more than once per day. For FOG and falls related to FOG (Question 14), a 5-point scale was used: 0: No FOG to 3 or 4: frequent falls from FOG. […] Analysis utilized Fisher's exact 2-tailed test. Improvement or worsening over baseline was calculated from the last treatment visit (Table 11).
Question 14—Freezing of Walking • 0=None; • 1=Rare freezing when walking, may have start hesitation; • 2=Occasional freezing when walking; • 3=Frequent freezing, occasionally falls from freezing; • 4=Frequent falls from freezing.
For the purposes of this alternative post hoc analysis, only patients having a screening or baseline score of 2 or more, i.e., occasional freezing when walking or occasional falls, less than once per day, were considered to have experienced episodes of freezing and/or falling. Additionally, scores of patients with a screening or baseline score of 1 were set to 0, i.e., no freezing when walking or no falls. All patients were included in the analysis regardless of their status during the study, with the last observation carried forward.

[3] = oral capsules
[4] = baseline to week 10, of 30 patients

**Q.** Which results are given for `CN1CCCC1c1cccnc1.O=C(O)C(O)C(O)C(=O)O` (stereo not shown) [NP002, Nicotine Bitartrate]?
**A.** Study discontinuation, primary reason adverse event, n (%) ([1]; 35 randomized): 6 n (%) and 6 (17.1) n (%); Constipation ([1]; N = 35): 5 (14.3) n (%); Diarrhea ([1]; N = 35): 2 (5.7) n (%); Dizziness ([1]; N = 35): 7 (20.0) n (%); Fatigue ([1]; N = 35): 3 (8.6) n (%); Headache ([1]; N = 35): 2 (5.7) n (%); Insomnia ([1]; N = 35): 0 (0.0) n (%); Nausea ([1]; N = 35): 13 (37.1) n (%); Nightmare ([1]; N = 35): 2 (5.7) n (%); Number (%) of subject with any AE ([1]; N = 35): 26 (74.3) n (%); Pain ([1]; N = 35): 3 (8.6) n (%); Pain in extremity ([1]; N = 35): 2 (5.7) n (%); Tremor ([1]; N = 35): 2 (5.7) n (%); Vomiting ([1]; N = 35): 4 (11.4) n (%); Subjects who required dose reduction or discontinuation of study treatment, n (%) ([1]; because of adverse events, 35 randomized): 7 (20.0) n (%); serum cotinine levels ([1]; compliance check): paralleled dosing of nicotine; most frequent adverse event ([1]; in vivo): nausea; number of adverse events reported ([1]; in vivo): 45; overall safety and tolerability ([1]; oral 4 times/day up to 24 mg/day, 10 weeks): safe and well tolerated, other than nausea; improvement in freezing vs placebo at week 10 ([2]; Question 14 score of 2 or greater at screening or baseline, Cochran-Mantel-Haenszel p=0.0476): statistically significant improvement in freezing; patients with either a reduction or absence of FOG ([2]; active phase of the study): ~73%; FOG (Question 14): patients with No Change [2, 4]: 17; FOG (Question 14): patients with change +1 [2, 4]: 1; FOG (Question 14): patients with change +2 [2, 4]: 0; FOG (Question 14): patients with change +3 [2, 4]: 0; FOG (Question 14): patients with change −1 [2, 4]: 10; FOG (Question 14): patients with change −2 [2, 4]: 2; FOG (Question 14): patients with change −3 ([2]; baseline to week 10, of 30 patients, negative = improvement): 0; patients with no FOG during the study ([2]; number of 30 patients): 10; patients with a reduction in FOG ([2]; of 30 patients, p=0.004 vs placebo): 40%; time until plasma concentration of nicotine returns close to baseline [3]: approximately 6 hours

Source: patent US20190307740A1, “COMPOSITIONS AND METHODS FOR TREATMENT RELATED TO FALL AND FALL FREQUENCY IN NEURODEGENERATIVE DISEASES” (Neurocea, LLC, priority 2016, published 2019)
